Where no end group is shown, it is not given here.
Columns and labels:
primary keratinocytes [1] = test: CPD detection by IHC in keratinocytes 3 h following UV-irradiation; assay type: cell-based
Protocol: An in vitro assay was conducted allowing for densitometry analysis of CPD detection by IHC in keratinocytes 3 h following UV-irradiation in accordance with the following protocol.
Keratinocytes were harvested and cultured as described above at Example 2. Samples were split into two groups, being UV irradiated (UVR) and non-UV irradiated (SHAM). UV-irradiation was performed by solar simulated UV-irradiation for cells, also as described above at Example 2. Irradiation solution was PBS containing 5 mM D-glucose. […]
Harvested keratinocytes were plated on poly-D-lysine coated coverslips in 96 well plates and irradiated (or sham treated) as described above in at Example 2 in PBS containing 5 mM D-glucose. Keratinocytes were fixed 3 h after UV-irradiation. Immunohistochemistry and image analysis were performed as described previously (Gordon-Thomson et al., Photochem Photobiol Sci, 2012, 11 (12): 1837-47; Gupta et al., vide supra, Rybchyn M S et al., J Invest Dermatol, 2018; 138 (5): 1146-1156). Thymine dimers were detected using the anti-thymine dimer antibody (Sigma-Aldrich, Missouri, USA) at 10 μg/mL, and quantified as an index of CPD, as previously described (Douki T and Cadet J, Biochemistry, 2001, 40 (8): 2495-501).
Following irradiation, keratinocytes were treated with either Calcitriol, vehicle control (Veh) or the polypeptide IK34720 (SEQ ID NO: 3; “IK”) IK14800; (RSKAKNPLYRRRRRRRRR), RSKAKNPLY (IK94000) and RRRRRRRRR (IK00900), at concentrations of 5 μM.

TGFβRII = TGFβRII expression by Western analysis in UV-irradiated dermal fibroblasts; assay type: cell-based, human; details: 1-10 μM added immediately following UV; 5 h post UV treatment; primary fibroblasts
Protocol: Human skin dermal fibroblasts were cultured from keratome biopsies of healthy adult human skin. Cells were between passages three and six. For UV irradiation, subconfluent cells were washed once with phosphate-buffered saline (PBS) and irradiated with UV. Immediately following irradiation, negative control (vehicle) or 1 μM, 2.5 μM, 5 μM and 10 μM of IK34720 (“IK” in FIG. 3B, SEQ ID NO: 3) were added to the cell cultures.
For Western analysis, nuclear extracts were prepared, membrane fractions were prepared and resolved on 8% SDS-polyacrylamide gel electrophoresis, transferred to polyvinylidene difluoride membrane, and reacted with primary antibodies. Blots were visualized and quantified.

Smad4 = Smad4 expression in UV treated cells (data not shown); assay type: cell-based
primary keratinocytes [2] = test: ATP levels, CellTiter-Glo 2.0 Assay, after ssUV; assay type: cell-based; details: 1.5 hours after UVR; compared with Calcitriol
Protocol: The influence of the polypeptide IK34720 (SEQ ID NO: 3) on intracellular ATP following UV exposure was assessed using the following protocol.
Primary keratinocytes were harvested as described above in Example 2 and were either exposed to ssUV-irradiation (UVR), as described above in Example 2 or not irradiated (SHAM), in the presence or absence of Calcitriol (positive control) or polypeptide IK34720 (SEQ ID NO: 3; RSKAKNPLYRRRRRRRRR), at the concentrations described in Example 2.
ATP levels were determined 1.5 hours after UVR using the CellTiter-Glo® 2.0 Assay (Promega, WI, USA) as described previously (Rybchyn et al., vide supra, 2017). All data in FIG. 4 is shown as mean+SD. *p<0.05, **p<0.01. Cells were prepared and irradiated as described above.

[3] = 5 μM after ssUV, fixed 3 h after UV

## RSKAKNPLYRRRRRRRRR (not fully specified (some residues)) [IK34720]
Primary keratinocytes [1]; [3]
  CPD levels compared to vehicle-treated UV-irradiated keratinocytes: statistically significant (*p<0.05) reduction in CPD levels
  reduction in CPD levels compared to Calcitriol: comparable reduction in CPD levels to keratinocytes treated with Calcitriol
Primary keratinocytes [1]; 10 μM, FIG. 8B
  inhibition of CPD formation (average intensity of CPD staining) compared to 1,25D: more effective at inhibiting CPD formation than the positive control 1,25D
Primary keratinocytes [1]; 0.5, 1, 2.5 or 5 μM after ssUV, fixed 3 h after UV
  CPD levels, dose response: decreases CPD levels in primary keratinocytes exposed to solar simulated UV-irradiation in a dose dependent manner
TGFβRII
  TGFβRII expression in UV treated cells: restored TGFβRII expression
Smad4
  Smad4 expression in UV treated cells: restored Smad4 expression
Primary keratinocytes [2]
  ATP levels: enhanced the ATP levels

Source: patent publication US20250262139A1, “POLYPEPTIDES AND METHODS FOR IMPROVING SKIN CONDITIONS” (INTERK PEPTIDE THERAPEUTICS LIMITED, priority 2020, published 2025)
